For one assay, the system named is Erysiyphe polygoni. As to the kind of experiment: Foliar spray for the control of bean powdery mildew. It is filed as in vivo. Particulars: 300 ppm, greenhouse foliar spray, Pinto bean plants. As for the experimental part: Foliar Spray for the Control of Bean Powdery Mildew Caused by Erysiyphe polygoni
Technical grade material at defined ppm rates (w/v) in an acetone:water mixture (1:9) containing 0.1% Tween 20 (v/v) is sprayed to near run-off onto greenhouse-grown Pinto bean plants (var. “Othello”) in the second leaf stage. Treated plants are inoculated within 24 hours by brushing mildew-infected plants over treated plants. Inoculated plants are kept in the greenhouse for two weeks for disease development. Disease severity is examined and the % control is calculated as [% disease on untreated plants−% disease on treated plants]/% disease on untreated plants. The results of these tests are shown in Table 2A below under the heading “Foliar Application—Bean Powdery Mildew”.

For a further assay, the system named is Sclerotium rolfsii. Type of assay: cell-based.
Assay [1] deals with Phytophthora infestans. As to the kind of experiment: microbe, parasite or virus in culture. It is filed as cell-based. The following applies: for Percent Control Phytophthora infestants: in vitro, rate 100 ppm, 48 hours.
The subject of the next assay is Uromyces appendiculatus. The assay is described as follows: Foliar spray for the control of bean rust. It is filed as in vivo. Particulars: 300 ppm. As for the experimental part: Foliar Spray for the Control of Bean Rust Caused by Uromyces appendiculatus
Technical grade material at defined ppm rates (w/v) in an acetone:water mixture (1:9) containing 0.1% Tween 20 (v/v) is sprayed to near run-off onto 10-days-old greenhouse-grown Pinto bean plants (var. “Othello”) in the second leaf stage. Treated plants are inoculated within 24 hours with an aqueous suspension of approximately 20,000 uredospores of Uromyces appendiculatus harvested from rust-infected plants. Inoculated plants are placed into a high humidity chamber for 24 hr and then transferred to the greenhouse for two weeks for disease development. Disease severity is examined and the % control is calculated as [% disease on untreated plants−% disease on treated plants]/% disease on untreated plants. The results of these tests are shown in Table 2A below under the heading “Foliar Application—Bean Rust”.

The test system of another assay is Barley Powdery Mildew. The assay is described as follows: Soil drench for the control of barley powdery mildew. Type of assay: in vivo, Erysiyphe graminis f.sp. hordei. Particulars: 300 ppm, greenhouse soil drench. The protocol: (§1) Soil Drench for the Control of Barley or Cucumber Powdery Mildew
(§2) Technical grade material formulated as described for foliar sprays is dispensed at defined rates (ml/cm^3) into the soil in the pots for barley and cucumber in the stages as described for the foliar sprays. Treated plants are inoculated, within 24 hours with the respective powdery mildew species as described for the foliar spray tests. Inoculated plants are kept in the greenhouse for 6–8 days for disease development. Disease severity is examined and the % control is calculated as [% disease on untreated plants−% disease on treated plants]/% disease on untreated plants. The results of these tests are shown in Table 2B below under the heading “Drench Application—Barley Powdery Mildew” and “Drench Application—Cucumber Powdery Mildew”.

The subject of another assay is Pythium ultimum. As to the kind of experiment: microbe, parasite or virus in culture. Type of assay: cell-based.
Another assay has as its system Helminthosporium sativum. The assay is described as follows: Foliar spray for the control of barley blotch. It is filed as in vivo. Particulars: greenhouse foliar spray, barley plants; for Foliar Application (Percent Control) Barley Blotch: 300 ppm. The protocol: Foliar Spray for the Control of Barley Blotch Caused by Helminthosporium sativum
Technical grade material at defined ppm rates (w/v) in an acetone:water mixture (1:9) containing 0.1% Tween 20 (v/v) is sprayed to near run-off onto 7-days-old greenhouse-grown barley plants (var. “Robust”) at the cotyledon stage. Treated plants are inoculated within 24 hours from spraying with an aqueous suspension of approximately 15,000 conidia/ml of Helminthosporium sativum grown on artificial medium. Inoculated plants are placed into a high humidity chamber for 24 hr and then transferred to the greenhouse for 4–5 days for disease development. Disease severity is examined and the % control is calculated as [% disease on untreated plants−% disease on treated plants]/% disease on untreated plants.
The results of these tests are shown in Table 2A below under the heading “Foliar Application—Barley Blotch”.

For assay [2], the system named is Botrytis cinerea. The assay is described as follows: microbe, parasite or virus in culture. It is filed as cell-based.
For assay [3], the system named is Cercosporidium personatum. It is filed as cell-based.
For the next assay, the system named is Sclerotinia minor. Type of assay: cell-based.
The subject of the next assay is Fusarium nivale. As to the kind of experiment: microbe, parasite or virus in culture. It is filed as cell-based.
The test system of a further assay is Cucumber Powdery Mildew. The assay is described as follows: Soil drench for the control of cucumber powdery mildew. Type of assay: in vivo. Particulars: 300 ppm, greenhouse soil drench. The protocol:
as §1, §2

The subject of the next assay is Rhizoctonia solani. The assay is described as follows: microbe, parasite or virus in culture. It is filed as cell-based.
Another assay deals with Colletotrichum gossypii. It is filed as cell-based.
The subject of assay [4] is Erysiyphe graminis f.sp. hordei. As to the kind of experiment: Foliar spray for the control of barley powdery mildew. It is filed as in vivo. The following applies: greenhouse foliar spray, barley plants; for Foliar Application (Percent Control) Barley Powdery Mildew: 300 ppm. The protocol: Foliar Spray for the Control of Barley Powdery Mildew caused by Erysiyphe graminis f.sp. hordei
Technical grade material at defined ppm rates (w/v) in an acetone:water mixture (1:9) containing 0.1% Tween 20 (v/v) is sprayed to near run-off onto 7-days-old greenhouse-grown barley plants (var. “Robust”) at the cotyledon stage. Treated plants are inoculated within 24 hours by brushing mildew-infected plants over the treated plants. Inoculated plants are kept in the greenhouse for 6–8 days for disease development. Disease severity is examined and the % control is calculated as [% disease on untreated plants−% disease on treated plants]/% diseases in untreated plants. The results of these tests are shown in Table 2A below under the heading “Foliar Application—Barley Powdery Mildew”.

The test system of another assay is Pyricularia oryzae. As to the kind of experiment: whole plant or invertebrate. Type of assay: in vivo. The following applies: Pyricularia oryzae, foliar, read-out: Foliar Application (Percent Control) Rice Blast.
Assay [5] has as its system Botrytis cinerea. As to the kind of experiment: Foliar spray for the control of geranium gray mold. Type of assay: in vivo. The following applies: 300 ppm, greenhouse foliar spray, geranium plants. As for the experimental part: Foliar Spray for the Control of Geranium Gray Mold Caused by Botrytis cinerea
Technical grade material at defined ppm rates (w/v) in an acetone:water mixture (1:9) containing 0.1% Tween 20 (v/v) is sprayed to near run-off onto mature greenhouse-grown geranium plants (var. “Pinto White”) in the second leaf stage. Treated plants are inoculated within 24 hours with an aqueous suspension of approximately 100,000 conidia/ml of Botrytis cinerea grown on artificial medium. Inoculated plants are placed into a high humidity chamber for 5 days and then transferred to the greenhouse for one day for disease development. Disease severity is examined and the % control is calculated as [% disease on untreated plants−% disease on treated plants]/% disease on untreated plants. The results of these tests are shown in Table 2A below under the heading “Foliar Application—Geranium Gray Mold”.

In assay [6] the test system is Phytophthora infestans. Type of assay: in vivo. Particulars: 300 ppm, greenhouse foliar spray, tomato plants.
The mark [7] stands for this setting: screened against rust on beans as foliar-applied eradicant.

For the compound `COC(=O)NNc1ccc(Oc2cccnc2)cc1` [Compound 5], the “Foliar Application (Percent Control) Bean Powdery Mildew” value in the assay with Erysiyphe polygoni stood at 0%. The “Percent Control Sclerotium rolfsii” value in the assay on Sclerotium rolfsii stood at 100%. The “Percent Control Phytophthora infestants” value with Phytophthora infestans [1] stood at 20%. In addition, in the assay with Uromyces appendiculatus (setting [7]), the “Foliar Application (Percent Control) Bean Rust” value is given as 0(e) %. The “Drench Application (Percent Control) Barley Powdery Mildew” value with Barley Powdery Mildew amounted to 0%. The “Percent Control Pythium ultimum” value in the assay with Pythium ultimum worked out at 70%. In addition, in the assay with Helminthosporium sativum, the “Foliar Application (Percent Control) Barley Blotch” value is recorded as 0%. Moreover, the “Percent Control Botrytis cinerea” value in the assay on Botrytis cinerea [2] turned out to be 25%. Moreover, in assay [3], the “Percent Control Cercosporidium personatum” value is listed as 0%. Besides, the “Percent Control Sclerotinia minor” value with Sclerotinia minor is given as 100%. Also, in the assay on Fusarium nivale, the “Percent Control Fusarium nivale” value is 90%. Besides, the “Drench Application (Percent Control) Cucumber Powdery Mildew” value in the assay with Cucumber Powdery Mildew was 0%. Also, the “Percent Control Rhizoctonia solani” value with Rhizoctonia solani is given as 0%. Besides, the “Percent Control Colletotricum gossypii” value in the assay on Colletotrichum gossypii is on record as 100%. Also, the “Foliar Application (Percent Control) Barley Powdery Mildew” value in assay [4] was 0%.

`CC(C)OC(=O)NNc1ccc(Oc2cccc(C(F)(F)F)c2)cc1` [Compound 1, 1-methylethyl 2-[4-[3-(trifluoromethyl)phenoxy]phenyl]hydrazinecarboxylate]: in the assay with Sclerotium rolfsii, the “Percent Control Sclerotium rolfsii” value worked out at 100%. The inhibition of growth at 100 ppm stood at 100% in the assay with Phytophthora infestans [1] (Phytophthora infestans, 48 h, read-out: Percent Control Phytophthora infestants); 100% in the assay with Pythium ultimum (Globisporangium ultimum, 48 h, read-out: Percent Control Pythium ultimum); 100% in the assay with Botrytis cinerea [2] (Botrytis cinerea, 48 h, read-out: Percent Control Botrytis cinerea); 29% in the assay on Fusarium nivale (Microdochium nivale, 48 h, read-out: Percent Control Fusarium nivale); 91% with Rhizoctonia solani (Rhizoctonia solani, 48 h, read-out: Percent Control Rhizoctonia solani). Besides, the pest or weed control at 300 ppm came to 79% with Pyricularia oryzae; 97% in the assay on Helminthosporium sativum (Helminthosporium, read-out: Foliar Application (Percent Control) Barley Blotch); 90% in assay [4] (Hordeum vulgare, read-out: Foliar Application (Percent Control) Barley Powdery Mildew). In the assay on Uromyces appendiculatus (greenhouse foliar spray, Pinto bean plants), the “Foliar Application (Percent Control) Bean Rust” value was determined as 97%. In addition, in the assay on Barley Powdery Mildew, the “Drench Application (Percent Control) Barley Powdery Mildew” value turned out to be 0%. Also, in the assay with Botrytis cinerea [5], the “Foliar Application (Percent Control) Geranium Gray Mold” value was 87%. In the assay on Cucumber Powdery Mildew, the “Drench Application (Percent Control) Cucumber Powdery Mildew” value was 0%. In the assay with Phytophthora infestans [6], the “Foliar Application (Percent Control) Tomato Late Blight” value was 12%.

On to `CCC(C)OC(=O)NN(C(=O)C(F)(F)F)c1ccc(Sc2ccccc2)cc1` (centres unmarked) [Compound 4], for which the “Foliar Application (Percent Control) Bean Powdery Mildew” value in the assay on Erysiyphe polygoni amounted to 88%. Also, in the assay with Phytophthora infestans [1], the “Percent Control Phytophthora infestants” value is given as 100%. Also, in the assay on Uromyces appendiculatus (setting [7]), the “Foliar Application (Percent Control) Bean Rust” value is 0(e) %. In the assay on Barley Powdery Mildew, the “Drench Application (Percent Control) Barley Powdery Mildew” value was 0%. Moreover, the “Percent Control Pythium ultimum” value in the assay on Pythium ultimum stood at 15%. For the same compound, the “Foliar Application (Percent Control) Barley Blotch” value in the assay on Helminthosporium sativum was 0%. Also, the “Percent Control Botrytis cinerea” value in the assay on Botrytis cinerea [2] amounted to 75%. For the same compound, the “Percent Control Cercosporidium personatum” value in [3] was 65%. Further, the “Percent Control Sclerotinia minor” value with Sclerotinia minor is on record as 50%. Moreover, the “Percent Control Fusarium nivale” value with Fusarium nivale came out at 50%. Also, the “Drench Application (Percent Control) Cucumber Powdery Mildew” value in the assay on Cucumber Powdery Mildew is 0%. The “Percent Control Rhizoctonia solani” value in the assay with Rhizoctonia solani was found to be 95%. In the assay on Colletotrichum gossypii, the “Percent Control Colletotricum gossypii” value is 15%. Also, the “Foliar Application (Percent Control) Tomato Late Blight” value in the assay on Phytophthora infestans [6] came to 0%. The “Foliar Application (Percent Control) Barley Powdery Mildew” value in [4] was determined as 0%.

These data come from patent US7045512B2 (priority 2003, dated 2006).
